These results are taken from patent US20100204146A1, “Treatment of Oestrogen Dependant Conditions in Pre-menopausal Women” (PregLem S.A., priority 2007, published 2010).

Data set [1] addresses T1, sulfatase activity present in eutopic and ectopic endometrium (Homo sapiens, UniProt P08842).
T1 construct: abolish the sulfatase activity present in eutopic and ectopic endometrium; host or cells: eutopic and ectopic endometrium (tissue)
T1 sequence (P08842 22-583): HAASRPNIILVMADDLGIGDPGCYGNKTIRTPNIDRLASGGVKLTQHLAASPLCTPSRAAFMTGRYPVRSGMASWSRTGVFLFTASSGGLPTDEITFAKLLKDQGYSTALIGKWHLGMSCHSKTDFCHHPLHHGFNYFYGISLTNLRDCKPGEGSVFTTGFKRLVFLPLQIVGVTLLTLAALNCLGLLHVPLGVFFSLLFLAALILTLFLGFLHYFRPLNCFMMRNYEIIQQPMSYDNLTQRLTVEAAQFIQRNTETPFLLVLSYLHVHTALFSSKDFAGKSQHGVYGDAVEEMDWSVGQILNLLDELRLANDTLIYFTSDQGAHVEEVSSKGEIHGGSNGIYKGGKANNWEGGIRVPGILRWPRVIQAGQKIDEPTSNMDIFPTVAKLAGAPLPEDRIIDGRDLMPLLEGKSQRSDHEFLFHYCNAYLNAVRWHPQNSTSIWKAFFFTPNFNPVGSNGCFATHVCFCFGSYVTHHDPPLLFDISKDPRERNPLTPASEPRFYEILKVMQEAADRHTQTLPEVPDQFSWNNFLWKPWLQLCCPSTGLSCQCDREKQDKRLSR
The settings on record: in vitro; cited from earlier work.

Another data set deals with metastatic breast cancer. Put plainly: Metastatic breast cancer patient treated with STS-I with GnRH agonist maintained. Type of data set: in vivo, human. The settings on record: daily administration. The method, then:
In a person, a metastatic breast cancer is progressing despite administration of aromatase inhibitor and a GnRH agonist. […] STX64, a STS-I from the coumate family of compound is administered on a daily basis.

For data set [2], the system named is person with peritoneal and ovarian endometriosis. Put plainly: Endometriosis patient treated with STS-I, then with added progestin. Type of data set: in vivo, human. Here is the method: A nulliparous person was diagnosed with a moderate/severe peritoneal and ovarian endometriosis during a laparoscopy performed for chronic pelvic pain, dyspareunia and infertility. Despite careful debulking of the lesions during the laparoscopy, the symptoms persisted and medical treatment is indicated. A STS-I, E2MATE is administered at 1.0 mg/week.

The test system of data set [3] is female Cynomolgus monkeys (Macaca fascicularis). Put plainly: 39-week intragastric study in female Cynomolgus monkeys: impact on ovarian cycle and function, microscopic status at necropsy. The settings on record: for Ovary: Absence of corpora lutea (% of animals) / Ovary: Absence of corpora lutea (no. of animals) / Ovary: Cyst (% of animals) / Ovary: Cyst (no. of animals) / Ovary: Increase in growing follicles (% of animals) / Ovary: Increase in growing follicles (no. of animals): 8 animals, after 39 weeks, necropsy; for menstrual cycle pattern: whole treatment period.
Method: Three groups of eight female Cynomolgus monkeys (Macaca fascicularis) each were treated intragastrically over a period of approximately 39 weeks at daily doses of 0.2, 0.8 and 2.0 mg/kg of E2MATE using an application volume of 10 mL/kg. A fourth group (control) received an equivalent volume of the vehicle under the same experimental conditions. […] After 39 weeks of treatment, the microscopic status at necropsy was as follows:

Setting [4] is: E2MATE 1.0 mg/week associated with norgestrel 0.1 mg/day.

Consider `NS(=O)(=O)Oc1ccc2c3c(c(=O)oc2c1)CCCCC3` [STX64], for which the “sulfatase activity in eutopic and ectopic endometrium” value in data set [1] is on record as “abolish”. The follicular development entry in the data set on metastatic breast cancer is on record as “no follicular development is recorded”.
With `C[C@]12CC[C@@H]3c4ccc(OS(N)(=O)=O)cc4CC[C@H]3[C@@H]1CC[C@@H]2O` [E2MATE, Estradiol sulfamate], in data set [2] (1.0 mg/week, alone), the endometriosis symptoms result was “partially relieved”, the “serum estradiol (E2)” value is given as “fluctuating serum E2 in the hundred of pg range” and the vaginal bleeding entry was “irregular episodes of mild but painful vaginal bleeding”. In data set [2] (setting [4]), the “patient's symptoms” value is “further improvement”; the “serum estradiol levels and bleeding episode” value was “reduction”. The animals became amenorrheic in data set [3] (0.2 mg/kg daily, intragastric, treatment period) is reported as 2/8. Also, in data set [3] (0.2 mg/kg dose group), the “Ovary: Absence of corpora lutea (% of animals)” value (shortened to “Ovary: Absence … (% of animals)”) is “(87.5%)”, the “Ovary: Absence of corpora lutea (no. of animals)” value (shortened to “Ovary: Absence … (no. of animals)”) came out at 7, the “Ovary: Cyst (% of animals)” value is “(12.5%)” and the “Ovary: Cyst (no. of animals)” value is listed as 1. In data set [3] (0.2 mg/kg dose group), the “Ovary: Increase in growing follicles (% of animals)” value (“Ovary: Increase … (% of animals)” for short) is reported as “(50%)” and the “Ovary: Increase in growing follicles (no. of animals)” value (shortened to “Ovary: Increase … (no. of animals)”) turned out to be 4. The menstrual cycle pattern entry in data set [3] (0.8 mg/kg daily, intragastric) is listed as “persistent amenorrhea in most animals”. In data set [3] (0.8 mg/kg dose group), the “Ovary: Absence … (% of animals)” value is listed as “(100%)”, the “Ovary: Absence … (no. of animals)” value is recorded as 8, the “Ovary: Cyst (% of animals)” value was “(12.5%)” and the “Ovary: Cyst (no. of animals)” value is recorded as 1. In addition, in data set [3] (0.8 mg/kg dose group), the “Ovary: Increase … (% of animals)” value is on record as “(12.5%)” and the “Ovary: Increase … (no. of animals)” value was 1. Besides, in data set [3] (2.0 mg/kg daily, intragastric), the menstrual cycle pattern entry is “persistent amenorrhea in most animals”. In data set [3] (4.0 mg/kg dose group), the “Ovary: Absence … (% of animals)” value is “(100%)”, the “Ovary: Absence … (no. of animals)” value was 8, the “Ovary: Cyst (% of animals)” value is “(0%)” and the “Ovary: Cyst (no. of animals)” value is 0. Moreover, in data set [3] (4.0 mg/kg dose group), the “Ovary: Increase … (% of animals)” value was “(50%)” and the “Ovary: Increase … (no. of animals)” value is 4.
